What follows are molecules tested against Recombinant human HSD17B13 (Homo sapiens (Human), UniProt Q7Z5P4) (assay: HSD17B13 rapid-fire mass spectrometry assay (RF/MS assay)). Settings: inhibition of HSD17B13; LTB4 10 μM, NAD+ 0.5 mM, RT 3 h; IC50 ranges A-E.
Type: biochemical
In short: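 Product 12-oxo-LTB4 and substrate LTB4 quantified by RapidFire triple-quad MS in negative mode, giving percent conversion. Reaction: 80 nM recombinant hHSD17B13, 10 μM LTB4, 0.5 mM NAD+, compound up to 100 μM, pH 7.5, RT, 3 h. Variable-slope fit gave IC50; run in duplicate.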

Recombinant human HSD17B13, sequence (Q7Z5P4 20-300): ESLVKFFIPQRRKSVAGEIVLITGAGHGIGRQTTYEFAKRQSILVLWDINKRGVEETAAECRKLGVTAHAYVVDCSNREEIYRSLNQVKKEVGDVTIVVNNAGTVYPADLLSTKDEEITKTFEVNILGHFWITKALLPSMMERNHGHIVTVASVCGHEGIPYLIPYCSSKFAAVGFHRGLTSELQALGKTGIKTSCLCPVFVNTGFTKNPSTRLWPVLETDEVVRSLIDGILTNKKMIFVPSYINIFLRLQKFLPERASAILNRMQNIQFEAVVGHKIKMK

IC50 [nM] | Structure (SMILES)
< 100 | COc1cc(C(=O)O)ccc1NS(=O)(=O)c1csc(-c2ccc(C3CCC(OC(F)(F)F)CC3)cc2)n1 (centres unmarked) [Example 367]
< 100 | COc1cc(C(=O)O)c(F)cc1NS(=O)(=O)c1csc(-c2ccc(-c3ccc(C(C)(F)F)cc3)cc2C(F)(F)F)n1 [Example 756]
100 to 500 | COc1cc(C(=O)O)ccc1NS(=O)(=O)c1csc(N2CCN(c3ccc(OC(F)(F)F)cc3)CC2)n1 [Example 271]
100 to 500 | COc1cc(C(=O)O)c(F)cc1NS(=O)(=O)c1csc(-c2cnc(C3CCC(C)(C)CC3)c(F)c2)n1 [Example 554]
100 to 500 | COc1cc(C(=O)O)c(F)cc1NS(=O)(=O)c1csc(-c2ccc(C3CCC(C)(C)CC3)cc2-c2ccc(F)cc2)n1 [Example 558]
< 100 | COc1cc(C(=O)O)c(F)cc1NS(=O)(=O)c1coc(-c2ccc(C3=CCC(C)(C)CC3)cc2C(F)(F)F)n1 [Example 675]
< 100 | COc1cc(C(=O)O)c(F)cc1NS(=O)(=O)c1csc(-c2ccc([C@H]3CC[C@H](C(C)C)CC3)c(OC(C)C)c2F)n1 [Example 587]
1000 to 100000 | COc1cc(C(=O)O)ccc1NS(=O)(=O)c1ccc(-c2cnc(-c3ccc(C4CCCCC4)cc3)s2)cc1 [Example 378, 4-((4-(2-(4-cyclohexylphenyl)thiazol-5-yl)phenyl)sulfonamido)-3-methoxybenzoic acid]
< 100 | COc1cc(C(=O)O)c(F)cc1NS(=O)(=O)c1csc(-c2ccc(C3=CCC(C)(C)CC3)cc2C(F)(F)F)n1 [Example 522]
100 to 500 | COc1cc(C(=O)O)c(F)cc1NS(=O)(=O)c1csc(-c2ccc(C3=CCC(C)(C)CC3)cn2)n1 [Example 565]
< 100 | CCC[C@H]1CC[C@H](c2ccc(-c3nc(S(=O)(=O)Nc4ccc(C(=O)O)cc4OC)cs3)cc2)CC1 [Example 350]
> 100000 | O=C(O)c1ccc2c(c1)CN(S(=O)(=O)c1ccc(F)cc1)C2 [Example 11]
< 100 | COc1cc(C(=O)O)c(F)cc1NS(=O)(=O)c1cnc(-c2ccc(C3=CCC(C)(C)CC3)cc2)s1 [Example 728]
100 to 500 | CCC[C@H]1CC[C@H](C2CC=C(c3nc(S(=O)(=O)Nc4ccc(C(=O)O)cc4OC)cs3)CC2)CC1 (some centres unmarked) [Example 373]
< 100 | COc1cc(C(=O)O)c(F)cc1NS(=O)(=O)c1csc(-c2ccc(C3=CCC(C)(C)CC3)c(F)c2OC)n1 [Example 546]
1000 to 100000 | O=C(O)c1ccc(NS(=O)(=O)c2cnc(-c3ccc(F)cc3)s2)cc1-c1ccccc1 [Example 47]
100 to 500 | COc1cc(C(=O)O)ccc1NS(=O)(=O)c1csc(-c2ccc(N3CCCCC3)cc2)n1 [Example 284]
100 to 500 | COc1cc(C(=O)O)c(F)cc1NS(=O)(=O)c1csc(-c2ccc(C3CC4CCC3CC4)cc2)n1 (centres unmarked) [Example 550]
100 to 500 | COc1cc(C(=O)O)ccc1NS(=O)(=O)N1Cc2ccc(-c3ccc(F)cc3)cc2C1 [Example 338]
< 100 | COc1cc(C(=O)O)c(F)cc1NS(=O)(=O)c1csc(-c2ccc(C3=CCC(C(C)(C)C)CC3)cc2)n1 (centres unmarked) [Example 747]
1000 to 100000 | COc1cc(C(=O)O)c(F)cc1NS(=O)(=O)c1ccc2nc(-c3ccc(C4CCC(C)(C)CC4)cc3)sc2c1 [Example 700]
100 to 500 | COc1cc(C(=O)O)c(F)cc1NS(=O)(=O)c1csc(-c2ccc([C@H]3CC[C@@H](C(C)(C)C)CC3)c(F)c2C)n1 [Example 595]

IC50 [nM] | Structure (SMILES)
100 to 500 | COc1cc(C(=O)O)c(F)cc1NS(=O)(=O)c1cnc(-c2ccc([C@H]3CC[C@@H](C)CC3)cc2)s1 [Example 626]
1000 to 100000 | COc1cc(C(=O)O)ccc1NS(=O)(=O)c1csc(N2CCC(c3ccccc3)C2)n1 (centres unmarked) [Example 259]
100 to 500 | COc1cc(C(=O)O)c(F)cc1NS(=O)(=O)c1cnn(-c2ccc([C@H]3CC[C@@H](C(C)C)CC3)cc2)c1 [Example 687]
100 to 500 | CCCOc1c(C2=CCC(C)(C)CC2)ccc(-c2nc(S(=O)(=O)Nc3cc(F)c(C(=O)O)cc3OC)cs2)c1F [Example 576]
< 100 | COc1cc(C(=O)O)ccc1NS(=O)(=O)c1coc(-c2ccc(C(C)C)cc2)n1 [Example 466, 4-((2-(4-isopropylphenyl)oxazole)-4-sulfonamido)-3-methoxybenzoic acid]
< 100 | CC[C@H]1CC[C@H](c2ccc(-c3cccc(S(=O)(=O)Nc4cc(F)c(C(=O)O)cc4OC)c3F)cc2)CC1 [Example 501]
1000 to 100000 | O=C(O)c1ccc(NS(=O)(=O)c2cnc(-c3ccc(F)cc3)s2)c(OC(F)(F)F)c1 [Example 48]
1000 to 100000 | CNS(=O)(=O)c1cc(OC)c(NS(=O)(=O)c2cnc(-c3ccc(F)cc3)s2)cc1C [Example 121]
100 to 500 | COc1cc(C(=O)O)c(F)cc1NS(=O)(=O)c1cnc(-c2ccc([C@H]3CC[C@@H](C(C)(C)C)CC3)cc2)s1 [Example 720]
500 to 1000 | COc1cc(C(=O)O)ccc1NS(=O)(=O)c1csc(-c2ccccc2C)n1 [Example 125]
< 100 | COc1cc(C(=O)O)ccc1NS(=O)(=O)c1csc(-c2ccc([C@H]3CC[C@H](C(F)(F)F)CC3)cc2)n1 [Example 506]
500 to 1000 | COc1cc(C(=O)O)ccc1NS(=O)(=O)c1ccc(-c2ccc(-c3ccc(O)cc3)cc2)s1 [Example 207]
100 to 500 | CCC[C@H]1CC[C@H](C2CC=C(c3nc(S(=O)(=O)Nc4cc(F)c(C(=O)O)cc4OC)cs3)CC2)CC1 (some centres unmarked) [Example 779]
1000 to 100000 | COc1cc(C(=O)O)ccc1NS(=O)(=O)c1csc(Nc2ccccc2)n1 [Example 163]
1000 to 100000 | COc1cc(S(N)(=O)=O)ccc1NS(=O)(=O)c1cnc(-c2ccc(F)cc2)s1 [Example 119]
1000 to 100000 | CN(C)S(=O)(=O)NC(=O)c1ccc(NS(=O)(=O)c2cnc(-c3ccc(F)cc3)s2)cc1 [Example 32]
< 100 | COc1cc(C(=O)O)ccc1NS(=O)(=O)c1csc(-c2ccc(-c3ccc4c(c3)OCCO4)cc2)n1 [Example 382]
< 100 | COc1cc(C(=O)O)c(F)cc1NS(=O)(=O)c1csc(-c2ccc(-c3cccc4[nH]ccc34)cc2)n1 [Example 647]
< 100 | COc1cc(C(=O)O)ccc1NS(=O)(=O)c1csc(C#Cc2ccc(C#N)c(OC(F)(F)F)c2)n1 [Example 397]
< 100 | COc1cc(C(=O)O)ccc1NS(=O)(=O)c1csc(C#Cc2ccccc2F)n1 [Example 204]
100 to 500 | CC[C@H]1CC[C@H](c2ccc(-c3ccnc(S(=O)(=O)Nc4cc(F)c(C(=O)O)cc4OC)c3)cc2)CC1 [Example 640]
100 to 500 | COc1cc(C(=O)O)ccc1NS(=O)(=O)c1ccc(-c2ccc(O)cc2)s1 [Example 180]

IC50 [nM] | Structure (SMILES)
100 to 500 | CC[C@H]1CC[C@H](c2ccc(-c3cnc(S(=O)(=O)Nc4cc(F)c(C(=O)O)cc4OC)s3)cc2)CC1 [Example 615]
1000 to 100000 | CS(=O)(=O)c1cc(C(=O)O)ccc1NS(=O)(=O)c1cnc(-c2ccc(F)cc2)s1 [Example 115]
1000 to 100000 | CCOC(=O)c1cc2c(c(OC)c1)N(S(=O)(=O)c1csc(-c3ccc(F)cc3)n1)CCC2 [Example 131]
1000 to 100000 | COc1cc(C(=O)O)c(NC(C)=O)cc1NS(=O)(=O)c1csc(-c2ccc(C3CCC(C)(C)CC3)cc2C(F)(F)F)n1 [Example 695]
< 100 | COc1cc(C(=O)O)c(F)cc1NS(=O)(=O)c1csc(-c2ccc(-c3ccc(C(F)(C(F)(F)F)C(F)(F)F)cc3)c(OC(C)C)c2F)n1 [Example 793]
100 to 500 | O=C(O)c1cc(NS(=O)(=O)c2cnc(-c3ccc(F)cc3)s2)co1 [Example 86]
100 to 500 | CCC[C@H]1CC[C@H]([C@H]2CC[C@H](c3nc(S(=O)(=O)Nc4cc(F)c(C(=O)O)cc4OC)cs3)CC2)CC1 [Example 734]
100 to 500 | COc1cc(C(=O)O)ccc1NS(=O)(=O)c1cccc(-c2ccc(C3CCCCC3)cc2)c1 [Example 472]
< 100 | COc1cccc(C#Cc2nc(S(=O)(=O)Nc3ccc(C(=O)O)cc3OC)cs2)c1 [Example 190]
1000 to 100000 | COc1cc(C(=O)O)ccc1NS(=O)(=O)c1nc(-c2ccc(F)cc2)sc1-c1ccccc1 [Example 306]
500 to 1000 | COc1cc(C(=O)O)ccc1NS(=O)(=O)c1csc(-c2ccc(C3CCOCC3)cc2)n1 [Example 370]
100 to 500 | COc1cc(C(=O)O)ccc1NS(=O)(=O)c1ccc(-c2ccc(C3CCCCC3)cc2)s1 [Example 374]
100 to 500 | COc1cc(C(=O)O)c(F)cc1NS(=O)(=O)c1csc(-c2ccc([C@H]3CC[C@@H](C(C)(C)C)CC3)cc2C(F)(F)F)n1 [Example 782]
< 100 | COc1cc(C(=O)O)c(F)cc1NS(=O)(=O)c1csc(-c2ccc(C3=CCC(C(F)(F)F)CC3)c(OC(C)C)c2F)n1 (centres unmarked) [Example 810]
100 to 500 | COc1cc(C(=O)O)c(F)cc1NS(=O)(=O)c1cnc(-c2ccc(C3CCC(c4ccccc4)CC3)cc2)s1 (centres unmarked) [Example 643]
100 to 500 | COc1cc(C(=O)O)c(F)cc1NS(=O)(=O)c1cnn(-c2ccc([C@H]3CC[C@H](C(F)(F)F)CC3)cc2)c1 [Example 686, 2-fluoro-5-methoxy-4-((1-(4-((1r,4r)-4-(trifluoromethyl)cyclohexyl)phenyl)-1H-pyrazole)-4-sulfonamido)benzoic acid]
1000 to 100000 | O=C(O)c1ccc(NS(=O)(=O)c2cnc(-c3ccc(F)cc3)s2)c(C(F)F)c1 [Example 173]
100 to 500 | COc1cc(C(=O)O)ccc1NS(=O)(=O)c1cnc(-c2ccc(C3=CC4CCC3C4)cc2)s1 (centres unmarked) [Example 722]
< 100 | CCOc1c(F)c(-c2nc(S(=O)(=O)Nc3cc(F)c(C(=O)O)cc3OC)cs2)ccc1[C@H]1CC[C@@H](C(F)(F)F)CC1 [Example 814]
1000 to 100000 | COc1cc(C(=O)O)ccc1NS(=O)(=O)c1csc(N2CCCC(C(C)c3ccccc3)C2)n1 (centres unmarked) [Example 295]

Structure (SMILES) | IC50 [nM]
COc1cc(C(=O)O)ccc1NS(=O)(=O)N1C[C@H]2CN(C(=O)OC(C)(C)C)C[C@H]2C1 [Example 331, 4-(((3aR,6aS)-5-(tert-butoxycarbonyl)octahydropyrrolo[3,4-c]pyrrole)-2-sulfonamido)-3-methoxybenzoic acid] | 1000 to 100000
